Legend:
human KOR receptor = human KOR receptor (Homo sapiens, UniProt P41145); assay: IP-One HTRF assay, potency of KOR agonists, dose-response in transiently transfected COS-7 cells; format: cell-based
Sequence of human KOR receptor (P41145 whole entry): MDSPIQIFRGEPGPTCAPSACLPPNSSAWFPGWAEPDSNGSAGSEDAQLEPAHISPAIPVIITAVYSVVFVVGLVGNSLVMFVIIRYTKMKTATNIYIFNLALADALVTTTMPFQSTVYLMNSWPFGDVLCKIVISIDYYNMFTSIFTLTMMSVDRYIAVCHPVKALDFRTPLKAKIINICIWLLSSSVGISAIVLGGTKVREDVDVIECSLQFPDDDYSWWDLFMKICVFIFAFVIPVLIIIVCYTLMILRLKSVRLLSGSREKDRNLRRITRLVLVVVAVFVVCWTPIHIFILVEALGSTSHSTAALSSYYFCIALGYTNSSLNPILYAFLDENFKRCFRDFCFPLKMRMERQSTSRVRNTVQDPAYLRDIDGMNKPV

Row | Compound | EC50 (human KOR receptor) [nM] | melting point [°C]
1 | CN(C(=O)Cc1ccc2oc(=O)n(Cc3ccccc3)c2c1)[C@H](CN1CCCC1)c1cccc(OCC(=O)OC(C)(C)C)c1 [Example 68, (S)-tert-butyl-2-(3-(1-(2-(3-benzyl-2-oxo-2,3-dihydrobenzo[d]oxazol-5-yl)-N-methylacetamido)-2-(pyrrolidin-1-yl)ethyl)phenoxy)acetate] | ≤ 50 | 111 to 113
2 | O=C(Cc1ccc2oc(=O)[nH]c2c1)N[C@H](CN1CC[C@H](O)C1)C1CCCCC1 [Example 67, N-((S)-1-cyclohexyl-2-((S)-3-hydroxypyrrolidin-1-yl)ethyl)-2-(2-oxo-2,3-dihydrobenzo[d]oxazol-5-yl)acetamide] | ≤ 50 | 173 to 174
3 | Cn1c(=O)oc2ccc(CC(=O)N[C@H](CN3CCCC3)c3ccccc3)cc21 [Example 61, (S)-2-(3-methyl-2-oxo-2,3-dihydrobenzo[d]oxazol-5-yl)-N-(1-phenyl-2-(pyrrolidin-1-yl)ethyl)acetamide] | 51 to 100 | 105 to 107
4 | CC(C)(C)OC(=O)COc1cccc([C@@H](CN2CCCC2)NC(=O)Cc2ccc3oc(=O)n(Cc4ccccc4)c3c2)c1 [Example 63, (S)-t-butyl-2-(3-(1-(2-(3-benzyl-2-oxo-2,3-dihydrobenzo[d]oxazol-5-yl)acetamido)-2-(pyrrolidin-1-yl)ethyl)phenoxy)acetate] | ≤ 50 | 68 to 70
5 | N#Cc1cccc(Cn2c(=O)oc3ccc(CC(=O)N[C@H](CN4CC[C@H](O)C4)c4ccccc4)cc32)c1 [Example 72, 2-(3-(3-cyanobenzyl)-2-oxo-2,3-dihydrobenzo[d]oxazol-5-yl)-N-((S)-2-((S)-3-hydroxypyrrolidin-1-yl)-1-phenylethyl)acetamide] | ≤ 50 | 65 to 68
6 | CN(C(=O)Cc1ccc2oc(=O)n(CC(=O)O)c2c1)[C@H](CN1CC[C@@H](O)C1)C1CCCCC1 [Example 97] | ≤ 50 | 233 to 234
7 | CN(C(=O)Cc1ccc2oc(=O)[nH]c2c1)C(CN1CCCC1)c1cccc(OCC(=O)O)c1 (stereo in doubt) [Example 90, (R)-2-(3-(1-(N-methyl-2-(2-oxo-2,3-dihydrobenzo[d]oxazol-5-yl)acetamido)-2-(pyrrolidin-1-yl)ethyl)phenoxy)acetic acid] | 51 to 100 | 227 to 229
8 | CN1C(=O)Cc2ccc(CC(=O)N(C)[C@H](CN3CCC(O)C3)c3cccc(-c4nn[nH]n4)c3)cc21 (stereo in doubt) [Example 111, N-((S)-1-(3-(2H-tetrazol-5-yl)phenyl)-2-((S)-3-hydroxypyrrolidin-1-yl)ethyl)-N-methyl-2-(1-methyl-2-oxoindolin-6-yl)acetamide] | ≤ 50 | 198 to 200
9 | CN(C(=O)Cc1ccc2oc(=O)n(Cc3cccc(-c4nn[nH]n4)c3)c2c1)[C@H](CN1CCC(O)C1)c1ccccc1 (stereo in doubt) [Example 103, 2-(3-(3-(2H-tetrazol-5-yl)benzyl)-2-oxo-2,3-dihydrobenzo[d]oxazol-5-yl)-N-((S)-2-((S)-3-hydroxypyrrolidin-1-yl)-1-phenylethyl)-N-methylacetamide] | ≤ 50 | 123 to 125
10 | CN(C(=O)Cc1ccc2c(c1)NC(=O)C2)[C@H](CN1CC[C@H](O)C1)c1cccc(-c2nn[nH]n2)c1 [Example 110, N-((S)-1-(3-(2H-tetrazol-5-yl)phenyl)-2-((S)-3-hydroxypyrrolidin-1-yl)ethyl)-N-methyl-2-(2-oxoindolin-6-yl)acetamide] | ≤ 50 | 208 to 210
11 | CN(C(=O)Cc1ccc2oc(=O)[nH]c2c1)[C@H](CN1CC[C@H](F)C1)c1cccc(-c2nn[nH]n2)c1 [Example 109, N-((S)-1-(3-(2H-tetrazol-5-yl)phenyl)-2-((S)-3-fluoropyrrolidin-1-yl)ethyl)-N-methyl-2-(2-oxo-2,3-dihydrobenzo[d]oxazol-5-yl)acetamide] | ≤ 50 | 133 to 134
12 | CN(C(=O)Cc1ccc2oc(=O)[nH]c2c1)[C@H](CN1CCC(O)C1)c1cccc(-c2nn[nH]n2)c1 (stereo in doubt) [Example 99, N-((S)-1-(3-(2H-tetrazol-5-yl)phenyl)-2-((S)-3-hydroxypyrrolidin-1-yl)ethyl)-N-methyl-2-(2-oxo-2,3-dihydrobenzo[d]oxazol-5-yl)acetamide] | ≤ 50 | 228 to 230
13 | N#Cc1cccc(Cn2c(=O)oc3ccc(CC(=O)N[C@H](CN4CCCC4)c4ccccc4)cc32)c1 [Example 46, (S)-2-(3-(3-cyanobenzyl)-2-oxo-2,3-dihydrobenzo[d]oxazol-5-yl)-N-(1-phenyl-2-(pyrrolidin-1-yl)ethyl)acetamide] | ≤ 50 | 109 to 110
14 | CN(C(=O)Cc1ccc2oc(=O)[nH]c2c1)[C@H](CN1CCC(O)C1)c1cccc(OCC(=O)OC(C)(C)C)c1 (stereo in doubt) [Example 77, Tert-butyl 2-(3-((S)-2-((R)-3-hydroxypyrrolidin-1-yl)-1-(N-methyl-2-(2-oxo-2,3-dihydrobenzo[d]oxazol-5-yl)acetamido)ethyl)phenoxy)acetate] | ≤ 50 | 124 to 125
15 | CN(C(=O)Cc1ccc2c(c1)NS(=O)(=O)C2)[C@H](CN1CC[C@H](O)C1)c1ccccc1 [Example 136, 2-(2,2-dioxido-1,3-dihydrobenzo[c]isothiazol-6-yl)-N-((S)-2-((S)-3-hydroxypyrrolidin-1-yl)-1-phenylethyl)-N-methylacetamide] | ≤ 50 | 232 to 234
16 | O=C(Cc1ccc2oc(=O)[nH]c2c1)N[C@H](CN1CCCC1)c1ccccc1 [Example 56, (S)-2-(2-oxo-2,3-dihydrobenzo[d]oxazol-5-yl)-N-(1-phenyl-2-(pyrrolidin-1-yl)ethyl) acetamide] | ≤ 50 | 129 to 130
17 | O=C1Cc2ccc(CC(=O)N[C@H](CN3CC[C@H](O)C3)C3CCCCC3)cc2N1 [Example 69, N-((S)-1-cyclohexyl-2-((S)-3-hydroxypyrrolidin-1-yl)ethyl)-2-(2-oxoindolin-6-yl)acetamide] | ≤ 50 | 132 to 133
18 | CN(C(=O)Cc1ccc2oc(=O)[nH]c2c1)[C@H](CN1CC[C@H](O)C1)C1CCCCC1 [Example 70, N-((S)-1-cyclohexyl-2-((S)-3-hydroxypyrrolidin-1-yl)ethyl)-N-methyl-2-(2-oxo-2,3dihydrobenzo[d]oxazol-5-yl)acetamide] | ≤ 50 | 130 to 131
19 | O=C(Cc1ccc2oc(=O)[nH]c2c1)N[C@H](CN1CC[C@H](O)C1)c1ccccc1 [Example 57, N-((S)-2-((S)-3-hydroxypyrrolidin-1-yl)-1-phenylethyl)-2-(2-oxo-2,3-dihydrobenzo[d]oxazol-5-yl)acetamide] | ≤ 50 | 210 to 211
20 | CN(C(=O)Cc1ccc2oc(=O)n(Cc3cccc(C(N)=O)c3)c2c1)[C@H](CN1CC[C@H](O)C1)c1ccccc1 [Example 88, 3-((5-(2-(((S)-2-((S)-3-hydroxypyrrolidin-1-yl)-1-phenylethyl)(methyl)amino)-2-oxoethyl)-2-oxobenzo[d]oxazol-3(2H)-yl)methyl)benzamide] | ≤ 50 | 181 to 183
21 | Cl.O=C(O)COc1cccc(C(CN2CCCC2)NC(=O)Cc2ccc3c(c2)NC(=O)C3)c1 (stereo not drawn) [Example 92, 2-(3-(1-(2-(2-oxoindolin-6-yl)acetamido)-2-(pyrrolidin-1-yl)ethyl)phenoxy)acetic acid] | ≤ 50 | 104 to 106
22 | CN(C(=O)Cc1ccc2ccc(=O)[nH]c2c1)[C@H](CN1CCCC1)c1ccccc1 [Example 49, (S)-N-methyl-2-(2-oxo-1,2-dihydroquinolin-7-yl)-N-(1-phenyl-2-(pyrrolidin-1-yl)ethyl)acetamide] | ≥ 1000 | 170 to 172
23 | CN(C(=O)Cc1ccc2oc(=O)[nH]c2c1)[C@H](CN1CCCC1)c1cccc(-c2nn[nH]n2)c1 [Example 93, (S)-N-(1-(3-(2H-tetrazol-5-yl)phenyl)-2-(pyrrolidin-1-yl)ethyl)-N-methyl-2-(2-oxo-2,3-dihydrobenzo[d]oxazol-5-yl)acetamide] | ≤ 50 | 240 to 242
24 | O=C1Cc2ccc(CC(=O)N[C@H](CN3CC[C@H](O)C3)c3ccccc3)cc2N1 |  | 207 to 209
25 | O=C(Cc1ccc2ccc(=O)[nH]c2c1)N[C@H](CN1CC[C@H](O)C1)c1ccccc1 |  | 174 to 176
26 | O=C(Cc1ccc2oc(=O)n(Cc3cccc(-c4nn[nH]n4)c3)c2c1)N[C@H](CN1CCC(O)C1)c1ccccc1 (stereo in doubt) [Example 102, 2-(3-(3-(2H-tetrazol-5-yl)benzyl)-2-oxo-2,3-dihydrobenzo[d]oxazol-5-yl)-N-((S)-2-((S)-3-hydroxypyrrolidin-1-yl)-1-phenylethyl)acetamide] | ≤ 50 | 235 to 237
27 | CN(C(=O)Cc1ccc2c(c1)NC(=O)C2)[C@H](CN1CC[C@H](F)C1)c1cccc(-c2nn[nH]n2)c1 [Example 113, N-((S)-1-(3-(2H-tetrazol-5-yl)phenyl)-2-((S)-3-fluoropyrrolidin-1-yl)ethyl)-N-methyl-2-(2-oxoindolin-6-yl)acetamide] | ≤ 50 | 175 to 177
28 | CO[C@H]1CCN(C[C@H](c2cccc(OC(F)(F)F)c2)N(C)C(=O)Cc2ccc3c(c2)NC(=O)CS3(=O)=O)C1 [Example 15, 2-(1,1-dioxido-3-oxo-3,4-dihydro-2H-benzo[b][1,4]thiazin-6-yl)-N-((S)-2-((S)-3-methoxypyrrolidin-1-yl)-1-(3-(trifluoromethoxy)phenyl)ethyl)-N-methylacetamide] | ≤ 50 | 
29 | CN(C(=O)Cc1ccc2ncc(=O)[nH]c2c1)[C@H](CN1CC[C@H](O)C1)c1cccc(C(=O)O)c1 [Example 31, 3-((S)-2-((S)-3-hydroxypyrrolidin-1-yl)-1-(N-methyl-2-(3-oxo-3,4-dihydroquinoxalin-6-yl)acetamido)ethyl)benzoic acid] | ≤ 50 | 

— US9487510B2, “Substituted heterocyclic acetamides as kappa opioid receptor (KOR) agonists” (Dr. Reddy's Laboratories Ltd., priority 2012, dated 2016)
